Read-outs that look alike come from different tables or passages of the source.
Assays:
[1] = test system: Key Broadleaf Weed and Crop Species; test: Post-emergent Test II herbicidal activity (Table 5); format: in vivo; details: post-emergence, 336 h, post-emergent, 14 days after application; for pest or weed control at 70 g/ha: 70 g ai/ha; for pest or weed control at 140 g/ha: 140 g ai/ha
How it was run: (§1)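 Greenhouse-grown plants at first or second true leaf stage were sprayed post-emergence with compound in acetone/DMSO-based aqueous spray containing crop oil concentrate and surfactant, at 187 L/ha, highest rate plus ½× to 1/16× dilutions. After 14 d, injury was scored visually versus untreated plants, 0 (none) to 100% (complete kill).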

[2] = test system: Key Grass and Sedge Weeds as well as Grass Crops; test: Post-emergent Test II herbicidal activity (Table 6); format: in vivo; details: post-emergence, 336 h; for pest or weed control at 70 g/ha: application rate 70 g ai/ha; for pest or weed control at 140 g/ha: application rate 140 g ai/ha
How it was run: as §1

[3] = ABUTH: velvetleaf (Abutilon theophrasti), read-out: Visual Growth Reduction (%) 14 Days After Application ABUTH
[4] = AMARE: redroot pigweed (Amaranthus retroflexus), read-out: Visual Growth Reduction (%) 14 Days After Application AMARE
[5] = BRSNN: oilseed-rape, canola (Brassica napus), read-out: Visual Growth Reduction (%) 14 Days After Application BRSNN
[6] = CHEAL: lambsquarters (Chenopodium album), read-out: Visual Growth Reduction (%) 14 Days After Application CHEAL
[7] = EPHHL: wild poinsettia (Euphorbia heterophylla), read-out: Visual Growth Reduction (%) 14 Days After Application EPHHL
[8] = HELAN: sunflower (Helianthus annuus), read-out: Visual Growth Reduction (%) 14 Days After Application HELAN
[9] = VIOTR: wild pansy (Viola tricolor), read-out: Visual Growth Reduction (%) 14 Days After Application VIOTR
[10] = Triticum aestivum, TRZSS (wheat), read-out: Visual Growth Reduction (%) 14 Days After Application, TRZSS
[11] = CYPES: yellow nutsedge (Cyperus esculentus), read-out: Visual Growth Reduction (%) 14 Days After Application, CYPES
[12] = DIGSA: crabgrass (Digitaria sanguinalis), read-out: Visual Growth Reduction (%) 14 Days After Application, DIGSA
[13] = ECHCG: barnyardgrass (Echinochloa crus-galli), read-out: Visual Growth Reduction (%) 14 Days After Application, ECHCG
[14] = ORYSA: rice (Oryza sativa), read-out: Visual Growth Reduction (%) 14 Days After Application, ORYSA
[15] = SETFA: giant foxtail (Setaria faberi), read-out: Visual Growth Reduction (%) 14 Days After Application, SETFA
[16] = SORVU: grain sorghum (Sorghum vulgare), read-out: Visual Growth Reduction (%) 14 Days After Application, SORVU
[17] = ZEAMX: maize, corn (Zea mays), read-out: Visual Growth Reduction (%) 14 Days After Application, ZEAMX

C=Cc1c(C(=O)O)nc(-c2ccc(C(F)(F)F)c(F)c2F)c(F)c1N [Compound 61]
pest or weed control at 70 g/ha [1, 3]: 85 to 94%
pest or weed control at 140 g/ha [1, 3]: 95 to 100%
pest or weed control at 70 g/ha [1, 4]: 95 to 100%
pest or weed control at 140 g/ha [1, 4]: 95 to 100%
pest or weed control at 70 g/ha [1, 5]: 0 to 29%
pest or weed control at 140 g/ha [1, 5]: 0 to 29%
pest or weed control at 70 g/ha [1, 6]: 75 to 84%
pest or weed control at 140 g/ha [1, 6]: 85 to 94%
pest or weed control at 70 g/ha [1, 7]: 95 to 100%
pest or weed control at 140 g/ha [1, 7]: 95 to 100%
pest or weed control at 70 g/ha [1, 8]: 95 to 100%
pest or weed control at 140 g/ha [1, 8]: 95 to 100%
pest or weed control at 70 g/ha [1, 9]: 0 to 29%
pest or weed control at 140 g/ha [1, 9]: 0 to 29%
pest or weed control at 70 g/ha [2, 10]: 30 to 44%
pest or weed control at 140 g/ha [2, 10]: 30 to 44%
pest or weed control at 70 g/ha [2, 11]: 45 to 59%
pest or weed control at 140 g/ha [2, 11]: 45 to 59%
pest or weed control at 70 g/ha [2, 12]: 0 to 29%
pest or weed control at 140 g/ha [2, 12]: 0 to 29%
pest or weed control at 70 g/ha [2, 13]: 45 to 59%
pest or weed control at 140 g/ha [2, 13]: 60 to 74%
pest or weed control at 70 g/ha [2, 14]: 0 to 29%
pest or weed control at 140 g/ha [2, 14]: 0 to 29%
pest or weed control at 70 g/ha [2, 15]: 0 to 29%
pest or weed control at 140 g/ha [2, 15]: 0 to 29%
pest or weed control at 70 g/ha [2, 16]: 45 to 59%
pest or weed control at 140 g/ha [2, 16]: 60 to 74%
pest or weed control at 70 g/ha [2, 17]: 60 to 74%
pest or weed control at 140 g/ha [2, 17]: 60 to 74%

Nc1c(Cl)c(C(=O)O)nc(-c2ccc(I)c(F)c2)c1Cl [Compound 145, 4-Amino-3,5-dichloro-6-(3-fluoro-4-iodophenyl)picolinic acid]
pest or weed control at 70 g/ha [1, 3]: 45 to 59%
pest or weed control at 140 g/ha [1, 3]: 60 to 74%
pest or weed control at 70 g/ha [1, 4]: 75 to 84%
pest or weed control at 140 g/ha [1, 4]: 95 to 100%
pest or weed control at 70 g/ha [1, 5]: 95 to 100%
pest or weed control at 140 g/ha [1, 5]: 95 to 100%
pest or weed control at 70 g/ha [1, 6]: 95 to 100%
pest or weed control at 140 g/ha [1, 6]: 95 to 100%
pest or weed control at 70 g/ha [1, 7]: 60 to 74%
pest or weed control at 140 g/ha [1, 7]: 60 to 74%
pest or weed control at 70 g/ha [1, 8]: 95 to 100%
pest or weed control at 140 g/ha [1, 8]: 95 to 100%
pest or weed control at 70 g/ha [1, 9]: 0 to 29%
pest or weed control at 140 g/ha [1, 9]: 0 to 29%
pest or weed control at 70 g/ha [2, 10]: 60 to 74%
pest or weed control at 140 g/ha [2, 10]: 60 to 74%
pest or weed control at 70 g/ha [2, 11]: 45 to 59%
pest or weed control at 140 g/ha [2, 11]: 45 to 59%
pest or weed control at 70 g/ha [2, 12]: 85 to 94%
pest or weed control at 140 g/ha [2, 12]: 85 to 94%
pest or weed control at 70 g/ha [2, 13]: 75 to 84%
pest or weed control at 140 g/ha [2, 13]: 75 to 84%
pest or weed control at 70 g/ha [2, 14]: 0 to 29%
pest or weed control at 140 g/ha [2, 14]: 0 to 29%
pest or weed control at 70 g/ha [2, 15]: 75 to 84%
pest or weed control at 140 g/ha [2, 15]: 75 to 84%
pest or weed control at 70 g/ha [2, 16]: 85 to 94%
pest or weed control at 140 g/ha [2, 16]: 85 to 94%
pest or weed control at 70 g/ha [2, 17]: 75 to 84%
pest or weed control at 140 g/ha [2, 17]: 75 to 84%

C=Cc1c(C(=O)OC)nc(-c2ccc(C#N)cc2)c(F)c1N [Compound 107, methyl 4-amino-6-(4-cyanophenyl)-5-fluoro-3-vinylpicolinate]
pest or weed control at 70 g/ha [1, 3]: 75 to 84%
pest or weed control at 140 g/ha [1, 3]: 75 to 84%
pest or weed control at 70 g/ha [1, 4]: 0 to 29%
pest or weed control at 140 g/ha [1, 4]: 0 to 29%
pest or weed control at 70 g/ha [1, 5]: 0 to 29%
pest or weed control at 140 g/ha [1, 5]: 0 to 29%
pest or weed control at 70 g/ha [1, 6]: 95 to 100%
pest or weed control at 140 g/ha [1, 6]: 95 to 100%
pest or weed control at 70 g/ha [1, 7]: 95 to 100%
pest or weed control at 140 g/ha [1, 7]: 95 to 100%
pest or weed control at 70 g/ha [1, 8]: 75 to 84%
pest or weed control at 140 g/ha [1, 8]: 85 to 94%
pest or weed control at 70 g/ha [1, 9]: 0 to 29%
pest or weed control at 140 g/ha [1, 9]: 0 to 29%
pest or weed control at 70 g/ha [2, 10]: 0 to 29%
pest or weed control at 140 g/ha [2, 10]: 0 to 29%
pest or weed control at 70 g/ha [2, 11]: 0 to 29%
pest or weed control at 140 g/ha [2, 11]: 60 to 74%
pest or weed control at 70 g/ha [2, 12]: 0 to 29%
pest or weed control at 140 g/ha [2, 12]: 0 to 29%
pest or weed control at 70 g/ha [2, 13]: 0 to 29%
pest or weed control at 140 g/ha [2, 13]: 0 to 29%
pest or weed control at 70 g/ha [2, 14]: 0 to 29%
pest or weed control at 140 g/ha [2, 14]: 0 to 29%
pest or weed control at 70 g/ha [2, 15]: 0 to 29%
pest or weed control at 140 g/ha [2, 15]: 0 to 29%
pest or weed control at 70 g/ha [2, 16]: 0 to 29%
pest or weed control at 140 g/ha [2, 16]: 0 to 29%
pest or weed control at 70 g/ha [2, 17]: 0 to 29%
pest or weed control at 140 g/ha [2, 17]: 0 to 29%

C#Cc1ccc(-c2nc(C(=O)O)c(C=C)c(N)c2F)cc1 [Compound 36]
pest or weed control at 70 g/ha [1, 3]: 0 to 29%
pest or weed control at 140 g/ha [1, 3]: 0 to 29%
pest or weed control at 70 g/ha [1, 4]: 95 to 100%
pest or weed control at 140 g/ha [1, 4]: 95 to 100%
pest or weed control at 70 g/ha [1, 5]: 0 to 29%
pest or weed control at 140 g/ha [1, 5]: 0 to 29%
pest or weed control at 70 g/ha [1, 6]: 85 to 94%
pest or weed control at 140 g/ha [1, 6]: 85 to 94%
pest or weed control at 70 g/ha [1, 7]: 95 to 100%
pest or weed control at 140 g/ha [1, 7]: 95 to 100%
pest or weed control at 70 g/ha [1, 8]: 85 to 94%
pest or weed control at 140 g/ha [1, 8]: 85 to 94%
pest or weed control at 70 g/ha [1, 9]: 0 to 29%
pest or weed control at 140 g/ha [1, 9]: 0 to 29%
pest or weed control at 70 g/ha [2, 10]: 45 to 59%
pest or weed control at 140 g/ha [2, 10]: 45 to 59%
pest or weed control at 70 g/ha [2, 11]: 0 to 29%
pest or weed control at 140 g/ha [2, 11]: 95 to 100%
pest or weed control at 70 g/ha [2, 12]: 0 to 29%
pest or weed control at 140 g/ha [2, 12]: 0 to 29%
pest or weed control at 70 g/ha [2, 13]: 60 to 74%
pest or weed control at 140 g/ha [2, 13]: 75 to 84%
pest or weed control at 70 g/ha [2, 14]: 0 to 29%
pest or weed control at 140 g/ha [2, 14]: 0 to 29%
pest or weed control at 70 g/ha [2, 15]: 0 to 29%
pest or weed control at 140 g/ha [2, 15]: 0 to 29%
pest or weed control at 70 g/ha [2, 16]: 60 to 74%
pest or weed control at 140 g/ha [2, 16]: 60 to 74%
pest or weed control at 70 g/ha [2, 17]: 30 to 44%
pest or weed control at 140 g/ha [2, 17]: 45 to 59%
